Activity calls are given as the source filed them. How the calls were made is not given here.
Test system: GENE-TOX genotoxicity assays, various organisms and cells
Assay: GENE-TOX mutagenicity studies
Details: for call: Assay Type: In vivo carcinogenicity studies
Description: GENE-TOX provides genetic toxicology (mutagenicity) test data from expert peer review of open scientific literature for more than 3,000 chemicals from the United States Environmental Protection Agency (EPA). GENE-TOX was established to select assay systems for evaluation, review data in the scientific literature, and recommend proper testing protocols and evaluation procedures for these systems.
GENE-TOX covers the years 1991 - 1998. It is no longer updated.
This is an archive assay for GENE-TOX mutagenicity studies.

[1] = Species/Cell Type: Chinese hamster lung (V79) cells, Assay Type: Forward gene mutation at the HPRT or ouabain locus, Assay Code: V79+, Evaluation Type: Evaluation A (Pre-1980)
[2] = Species/Cell Type: Nonhuman, Assay Code: CCGT, Evaluation Type: Evaluation A (Pre-1980)
[3] = Species/Cell Type: Salmonella typhimurium (one or more of the five standard strains: TA98, TA100, TA1535, TA1537, and TA1538), Assay Type: Histidine reverse gene mutation, Ames assay, Assay Code: SAL+, Evaluation Type: Evaluation A (Pre-1980)
[4] = Species/Cell Type: Drosophila melanogaster, Assay Type: Sex-linked recessive lethal gene mutation, Assay Code: SRL+, Evaluation Type: Evaluation A (Pre-1980)
[5] = Species/Cell Type: Escherichia coli polA (W3119 vs P3478), Assay Type: Rec-assay, DNA effects (bacterial DNA repair), Assay Code: RE1+, Evaluation Type: Evaluation A (Pre-1980)
[6] = Species/Cell Type: Human lymphocytes, Assay Type: Sister-chromatid exchange (SCE) in vitro, Assay Code: SCL+, Evaluation Type: Evaluation B (Post-1980)
[7] = Species/Cell Type: Saccharomyces cerevisiae, Assay Type: Mitotic recombination or gene conversion, Assay Code: YEC+, Evaluation Type: Evaluation A (Pre-1980)
[8] = Species/Cell Type: Syrian hamster embryo (SHE) cells, Assay Type: Cell transformation, clonal assay, Assay Code: CTC+, Evaluation Type: Evaluation A (Pre-1980)
[9] = Species/Cell Type: Salmonella typhimurium (one or more of the five standard strains: TA98, TA100, TA1535, TA1537, and TA1538), Assay Type: Histidine reverse gene mutation, Ames assay, Assay Code: SALT, Evaluation Type: Evaluation A (Pre-1980)
[10] = Species/Cell Type: Bacillus subtilis (H17 vs M45), Assay Type: Rec-assay, spot test, DNA effects (bacterial DNA repair), Assay Code: REW+, Evaluation Type: Evaluation A (Pre-1980)

Compound: C1CC2OC2C2OC12 (centres undefined)
- mutagenic call (Species/Cell Type: Neurospora crassa, Assay Type: Forward gene mutation, Assay Code: NEF-, Evaluation Type: Evaluation A (Pre-1980)): inactive; negative

Compound: c1ccc2c3c4c(ccc5cccc(c54)[C@H]4O[C@@H]34)cc2c1
- mutagenic call [1]: active; positive
- call [2]: no conclusion
- mutagenic call [3]: active; positive

Compound: CC(=O)ON(C(C)=O)c1ccc2c(c1)Cc1ccccc1-2
- mutagenic call [1]: active; positive
- mutagenic call [4]: active; positive
- mutagenic call [5]: active; positive
- mutagenic call (Species/Cell Type: Fischer rat embryo (RLV/1706) cells, Assay Type: Cell transformation, viral enhanced, Assay Code: CTR+, Evaluation Type: Evaluation A (Pre-1980)): active; positive
- mutagenic call (Species/Cell Type: Human diploid fibroblasts, Assay Type: Unscheduled DNA synthesis (UDS) in vitro, DNA effects, Assay Code: UDH+D, Dose Response: With dose response, Evaluation Type: Evaluation A (Pre-1980)): active; positive
- mutagenic call [6]: active; positive
- mutagenic call (Species/Cell Type: Human, Assay Type: Sister-chromatid exchange (SCE) in vitro, Assay Code: SC1+, Evaluation Type: Evaluation A (Pre-1980)): active; positive
- mutagenic call (Species/Cell Type: Mouse (BALB/c-3T3) cells, Assay Type: Cell transformation, Assay Code: CTB+, Evaluation Type: Evaluation A (Pre-1980)): active; positive
- mutagenic call (Species/Cell Type: Mouse (C3H/10T1/2) cells, Assay Type: Cell transformation, Assay Code: CTH+D, Dose Response: With dose response, Evaluation Type: Evaluation A (Pre-1980)): active; positive
- mutagenic call (Species/Cell Type: Mouse embryo (AKR/ME) cells, Assay Type: Cell transformation, Assay Code: CTK+, Evaluation Type: Evaluation A (Pre-1980)): active; positive
- mutagenic call (Species/Cell Type: Neurospora crassa, Assay Type: Reverse gene mutation, Assay Code: NER+, Evaluation Type: Evaluation A (Pre-1980)): active; positive
- call (Species/Cell Type: Nonhuman, Assay Code: CCG+L, Evaluation Type: Evaluation A (Pre-1980)): active; positive
- mutagenic call (Species/Cell Type: Nonhuman, Assay Type: Sister-chromatid exchange (SCE) in vitro, Assay Code: SC2+D, Dose Response: With dose response, Evaluation Type: Evaluation A (Pre-1980)): active; positive
- mutagenic call (Species/Cell Type: Nonhuman, Assay Type: Sister-chromatid exchange (SCE) in vivo, Assay Code: SC3+, Evaluation Type: Evaluation B (Post-1980)): active; positive
- mutagenic call (Species/Cell Type: Nonhuman, Assay Type: Sister-chromatid exchange (SCE) in vivo, Assay Code: SC3T, Evaluation Type: Evaluation A (Pre-1980)): no conclusion
- mutagenic call (Species/Cell Type: Rat primary hepatocytes, Assay Type: Unscheduled DNA synthesis (UDS) in vitro, DNA effects, Assay Code: UDP+, Evaluation Type: Evaluation A (Pre-1980)): active; positive
- mutagenic call [7]: active; positive
- mutagenic call (Species/Cell Type: Saccharomyces cerevisiae, Assay Type: Mitotic recombination or gene conversion, Assay Code: YEH+, Evaluation Type: Evaluation A (Pre-1980)): active; positive
- mutagenic call [3]: active; positive
- mutagenic call (Species/Cell Type: Salmonella typhimurium, Assay Type: Forward and reverse gene mutation, host-mediated assay, Assay Code: HMA+, Evaluation Type: Evaluation A (Pre-1980)): active; positive
- mutagenic call (Species/Cell Type: Syrian hamster embryo (SA7/SHE) cells, Assay Type: Cell transformation, viral enhanced, Assay Code: CT7+, Evaluation Type: Evaluation A (Pre-1980)): active; positive
- mutagenic call (Species/Cell Type: Syrian hamster embryo (SHE) cells, Assay Type: Cell transformation, clonal assay, Assay Code: CTC+D, Dose Response: With dose response, Evaluation Type: Evaluation A (Pre-1980)): active; positive
- mutagenic call (Species/Cell Type: Syrian hamster embryo (SHE) cells, Assay Type: Cell transformation, focus assay, Assay Code: CTF+, Evaluation Type: Evaluation A (Pre-1980)): active; positive

Compound: [N-]=[N+]=O
- mutagenic call [1]: active; positive
- mutagenic call (Species/Cell Type: Mouse, Sex: Male, Assay Type: Sperm morphology, Assay Code: SPI-, Evaluation Type: Evaluation A (Pre-1980)): inactive; negative
- call [2]: no conclusion
- mutagenic call (Species/Cell Type: Nonhuman, Assay Type: Sister-chromatid exchange (SCE) in vitro, Assay Code: SC2T, Evaluation Type: Evaluation B (Post-1980)): no conclusion
- mutagenic call (Species/Cell Type: Tradescantia species, Assay Type: Gene mutation, Assay Code: TRM+D, Dose Response: With dose response, Evaluation Type: Evaluation A (Pre-1980)): active; positive

Compound: Cc1ccc2cc3c(c4c2c1CC4)C1OC1c1ccccc1-3 (centres undefined)
- mutagenic call [1]: active; positive
- mutagenic call [4]: active; positive
- mutagenic call (Species/Cell Type: Mouse prostate cells, Assay Type: Cell transformation, Assay Code: CTM+, Evaluation Type: Evaluation A (Pre-1980)): active; positive
- call [2]: no conclusion
- mutagenic call [8]: active; positive

Compound: Oc1ccc(N=Nc2ccccc2)cc1
- mutagenic call (Species/Cell Type: Salmonella typhimurium (one or more of the five standard strains: TA98, TA100, TA1535, TA1537, and TA1538), Assay Type: Histidine reverse gene mutation, Ames assay, Assay Code: SAL-, Evaluation Type: Evaluation A (Pre-1980)): inactive; negative

Compound: CCC(=O)O[C@H]1CC[C@H]2[C@@H]3CCC4=CC(=O)CC[C@]4(C)[C@H]3CC[C@]12C
- mutagenic call (Species/Cell Type: Human, Sex: Male, Assay Type: Sperm morphology, Assay Code: SPH+, Evaluation Type: Evaluation A (Pre-1980)): active; positive
- call (Species/Cell Type: Nonhuman, Assay Code: CCG+, Evaluation Type: Evaluation A (Pre-1980)): active; positive

Compound: CCOP(=S)(OCC)SC1OCCOC1SP(=S)(OCC)OCC (centres undefined)
- call (Species/Cell Type: Nonhuman, Assay Code: CCG-, Evaluation Type: Evaluation A (Pre-1980)): inactive; negative

Compound: COc1cc([N+](=O)[O-])c2ncccc2c1
- mutagenic call [3]: active; positive

Compound: Cc1c2ccccc2cc2ccc3ccccc3c12
- mutagenic call (Species/Cell Type: Nonhuman, Assay Type: Sister-chromatid exchange (SCE) in vitro, Assay Code: SC2+D, Dose Response: With dose response, Evaluation Type: Evaluation B (Post-1980)): active; positive
- mutagenic call (Species/Cell Type: Salmonella typhimurium (one or more of the five standard strains: TA98, TA100, TA1535, TA1537, and TA1538), Assay Type: Histidine reverse gene mutation, Ames assay, Assay Code: SAL+*, Activation: With metabolic activation, Evaluation Type: Evaluation A (Pre-1980)): active; positive

Compound: CN(C)CCC=C1c2ccccc2C2OC2c2ccccc21 (centres undefined)
- mutagenic call [9]: no conclusion

Compound: CCC(C)c1cc([N+](=O)[O-])cc([N+](=O)[O-])c1O (centres undefined)
- mutagenic call [10]: active; positive
- mutagenic call (Species/Cell Type: Drosophila melanogaster, Assay Type: Sex-linked recessive lethal gene mutation, Assay Code: SRLT, Evaluation Type: Evaluation A (Pre-1980)): no conclusion
- mutagenic call (Species/Cell Type: Escherichia coli WP2 UVRA, Assay Type: Tryptophan reverse gene mutation, Assay Code: WPU-*, Activation: With metabolic activation, Evaluation Type: Evaluation A (Pre-1980)): inactive; negative
- mutagenic call [5]: active; positive
- mutagenic call (Species/Cell Type: Human diploid fibroblasts, Assay Type: Unscheduled DNA synthesis (UDS) in vitro, DNA effects, Assay Code: UDH-, Evaluation Type: Evaluation A (Pre-1980)): inactive; negative
- mutagenic call [7]: active; positive
- mutagenic call (Species/Cell Type: Saccharomyces cerevisiae, Assay Type: Mitotic recombination or gene conversion, Assay Code: YEH-, Evaluation Type: Evaluation A (Pre-1980)): inactive; negative
- mutagenic call [9]: no conclusion

Compound: CC/C(=C(/CC)c1ccc(OP(=O)(O)O)cc1)c1ccc(OP(=O)(O)O)cc1
- mutagenic call (Species/Cell Type: Mammalian polychromatic erythrocytes, Assay Type: Micronucleus test, chromosome aberrations, Assay Code: MNTT, Evaluation Type: Evaluation A (Pre-1980)): no conclusion
- mutagenic call (Species/Cell Type: Neurospora crassa, Assay Type: Aneuploidy, chromosome aberrations, Assay Code: NEN-, Evaluation Type: Evaluation A (Pre-1980)): inactive; negative
- mutagenic call (Species/Cell Type: Nonhuman, Assay Type: Sister-chromatid exchange (SCE) in vivo, Assay Code: SC3-, Evaluation Type: Evaluation B (Post-1980)): inactive; negative
- mutagenic call (Species/Cell Type: Rodents, Sex: Male, Assay Type: Dominant lethal test, Assay Code: DLT+, Evaluation Type: Evaluation A (Pre-1980)): active; positive

Compound: CC(C)C[C@@H](N)[C@H](O)C(=O)N[C@H](C(=O)N[C@H](C(=O)N[C@@H](CC(=O)O)C(=O)O)C(C)C)C(C)C
- mutagenic call (Species/Cell Type: Human, Assay Type: Sister-chromatid exchange (SCE) in vitro, Assay Code: SC1T, Evaluation Type: Evaluation B (Post-1980)): no conclusion

Compound: O=[As](O)(O)O
- mutagenic call [10]: active; positive
- mutagenic call [6]: active; positive
- mutagenic call (Species/Cell Type: Human, Assay Type: Sister-chromatid exchange (SCE) in vitro, Assay Code: SC1+, Evaluation Type: Evaluation B (Post-1980)): active; positive
- mutagenic call (Species/Cell Type: Nonhuman, Assay Type: Sister-chromatid exchange (SCE) in vitro, Assay Code: SC2+, Evaluation Type: Evaluation B (Post-1980)): active; positive
- mutagenic call [8]: active; positive

Compound: c1cc2c3c(cccc3c1)CC2
- mutagenic call (Species/Cell Type: Drosophila melanogaster, Assay Type: Aneuploidy, sex chromosome gain, chromosome aberrations, Assay Code: DAGT, Evaluation Type: Evaluation A (Pre-1980)): no conclusion
